Experimental data: PubChem BioAssay (NCI)
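Five concentrations, 48 hours, 96-well plates. Here, GI50 denotes the concentration required for 50% inhibition of growth. Definition used: TGI = concentration required for complete inhibition of growth.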

Columns and labels:
Assay in all cases: inhibition of tumour cell growth, NCI panel, 48 h
[1] = system: 786-0 renal
[2] = system: A498 renal
[3] = system: A549 NSCLC
[4] = system: BT-549 breast
[5] = system: CAKI-1 renal
[6] = system: CCRF-CEM leukemia
[7] = system: COLO 205 colon
[8] = system: DU-145 prostate
[9] = system: EKVX NSCLC
[10] = system: HCC-2998 colon
[11] = system: HCT-116 colon
[12] = system: HL-60(TB) leukemia
[13] = system: HOP-62 NSCLC
[14] = system: HOP-92 NSCLC
[15] = system: HS 578T breast
[16] = system: HT29 colon
[17] = system: IGROV1 ovarian
[18] = system: K-562 leukemia
[19] = system: KM12 colon
[20] = system: LOX IMVI melanoma
[21] = system: M14 melanoma
[22] = system: MALME-3M melanoma
[23] = system: MCF7 breast
[24] = system: MDA-MB-231 breast
[25] = system: MDA-MB-435
[26] = system: MOLT-4 leukemia
[27] = system: NCI-H226 lung
[28] = system: NCI-H23 lung
[29] = system: NCI-H460 lung
[30] = system: NCI-H522 lung
[31] = system: NCI/ADR-RES ovarian
[32] = system: OVCAR-3 ovarian
[33] = system: OVCAR-4 ovarian
[34] = system: OVCAR-8 ovarian
[35] = system: PC-3 prostate
[36] = system: RPMI-8226 leukemia
[37] = system: RXF 393 renal
[38] = system: SF-268 CNS
[39] = system: SF-295 CNS
[40] = system: SK-MEL-2 melanoma
[41] = system: SK-MEL-28 melanoma
[42] = system: SK-MEL-5 melanoma
[43] = system: SK-OV-3 ovarian
[44] = system: SN12C renal
[45] = system: SNB-19 CNS
[46] = system: SNB-75 CNS
[47] = system: SR leukemia
[48] = system: SW-620 colon
[49] = system: T-47D breast
[50] = system: TK-10 renal
[51] = system: U251 CNS
[52] = system: UACC-257 melanoma
[53] = system: UACC-62 melanoma
[54] = system: UO-31 renal

CN(C)c1ccc2nc3ccc(=[N+](C)C)c([N+](=O)[O-])c-3sc2c1
GI50 [1]: 6.2 µM | TGI [1]: 21.4 µM | GI50 [2]: 7.06 µM | TGI [2]: 21.9 µM | GI50 [3]: 1.46 µM | TGI [3]: 18.1 µM | GI50 [4]: 8.29 µM | TGI [4]: 21.7 µM | GI50 [5]: 2.59 µM | TGI [5]: 13.1 µM | GI50 [6]: 0.908 µM | TGI [6]: 15.4 µM | GI50 [7]: 1.7 µM | TGI [7]: 9.83 µM | GI50 [8]: 4.75 µM | TGI [8]: 18.3 µM | GI50 [9]: 1.67 µM | TGI [9]: 16.2 µM | GI50 [10]: 5.18 µM | TGI [10]: 16.8 µM | GI50 [11]: 2.45 µM | TGI [11]: 13.2 µM | GI50 [12]: 0.302 µM | TGI [12]: 4.7 µM | GI50 [13]: 8.6 µM | TGI [13]: 22.2 µM | GI50 [14]: 2.09 µM | TGI [14]: 11.3 µM | GI50 [15]: 3.33 µM | TGI [15]: 26.1 µM | GI50 [16]: 6.04 µM | TGI [16]: 25.1 µM | GI50 [17]: 2.56 µM | GI50 [18]: 1.94 µM | TGI [18]: 19.4 µM | GI50 [19]: 2.08 µM | TGI [19]: 16.4 µM | GI50 [20]: 1.32 µM | TGI [20]: 7.85 µM | GI50 [21]: 1.32 µM | TGI [21]: 10.8 µM | GI50 [22]: 2.38 µM | TGI [22]: 8.97 µM | GI50 [23]: 1.79 µM | TGI [23]: 5.9 µM | GI50 [24]: 0.578 µM | TGI [24]: 4.46 µM | GI50 [25]: 2.46 µM | TGI [25]: 11.4 µM | GI50 [26]: 2.3 µM | TGI [26]: 10.6 µM | GI50 [27]: 7.97 µM | TGI [27]: 22.4 µM | GI50 [28]: 1.87 µM | TGI [28]: 9.65 µM | GI50 [29]: 2.59 µM | TGI [29]: 15.2 µM | GI50 [30]: 1.81 µM | TGI [30]: 5.19 µM | GI50 [31]: 2.33 µM | TGI [31]: 8.13 µM | GI50 [32]: 0.271 µM | TGI [32]: 0.926 µM | GI50 [33]: 0.906 µM | TGI [33]: 3.04 µM | GI50 [34]: 1.87 µM | TGI [34]: 10.4 µM | GI50 [35]: 0.599 µM | TGI [35]: 6.78 µM | GI50 [36]: 0.536 µM | TGI [36]: 15.9 µM | GI50 [37]: 4.41 µM | TGI [37]: 18.1 µM | GI50 [38]: 2.1 µM | TGI [38]: 13.2 µM | GI50 [39]: 3.04 µM | TGI [39]: 16.6 µM | GI50 [40]: 4.54 µM | TGI [40]: 16.1 µM | GI50 [41]: 10.3 µM | TGI [41]: 22 µM | GI50 [42]: 1.44 µM | TGI [42]: 12.1 µM | GI50 [43]: 11.8 µM | TGI [43]: 28.9 µM | GI50 [44]: 1.37 µM | TGI [44]: 5.26 µM | GI50 [45]: 0.483 µM | TGI [45]: 17.4 µM | GI50 [46]: 2.93 µM | TGI [46]: 13.3 µM | GI50 [47]: 0.797 µM | TGI [47]: 17.5 µM | GI50 [48]: 2.57 µM | TGI [48]: 12.3 µM | GI50 [49]: 2.16 µM | TGI [49]: 7.47 µM | GI50 [50]: 7.46 µM | TGI [50]: 23.5 µM | GI50 [51]: 1.21 µM | TGI [51]: 11.1 µM | GI50 [52]: 2.85 µM | TGI [52]: 8.59 µM | GI50 [53]: 1.1 µM | TGI [53]: 3 µM | GI50 [54]: 5.98 µM | TGI [54]: 23.4 µM
